Measurements from ChEMBL document CHEMBL3232974, “In vivo optimization of 2,3-diaminopyrazine Rho Kinase inhibitors for the treatment of glaucoma” (Bioorg Med Chem Lett, 2014).

Key:
[1] = Drug level in Dutch-Belted rabbit aqueous humor at 150 ug administered as topical ocular instillation after 30 mins by RP-HPLC analysis; type: ADME, Oryctolagus cuniculus, Aqueous humor of eyeball; details: topical or ocular, read-out: Drug uptake
[2] = molecular target: Rho-associated protein kinase 1 (Homo sapiens, UniProt Q13464); assay: Inhibition of truncated ROCK-1 (unknown origin)
Cynomolgus monkey [3] = assay: Toxicity in cynomolgus monkey compound administered as topical ocular dose after 6 hrs; type: organism-based, Macaca fascicularis, Eye; details: in vivo, topical_or_ocular
[4] = Aqueous solubility of the compound; type: physicochemical; details: buffer
Cavia porcellus [5] = organism: Cavia porcellus; assay: Antiglaucoma activity in guinea pig assessed as hyperemia at 300 ug after 2 hrs relative to control; type: functional
Cynomolgus monkey [6] = assay: Antiglaucoma activity in cynomolgus monkey assessed as reduction in intraocular pressure at MTD administered as topical ocular dose after 6 hrs relative to control; type: functional, Macaca fascicularis, Eye; set-up: scale not given: the % may be the effect or the level left
[7] = molecular target: Rho-associated protein kinase 2 (Homo sapiens, UniProt O75116); assay: Inhibition of truncated ROCK-2 (unknown origin) after 60 mins by IMAP assay
Cavia porcellus [8] = organism: Cavia porcellus; assay: Antiglaucoma activity in guinea pig assessed as hyperemia at 100 ug after 2 hrs relative to control; type: functional
[9] = Drug level in Dutch-Belted rabbit aqueous humor at 100 ug administered as topical ocular instillation after 30 mins by RP-HPLC analysis; type: ADME, Oryctolagus cuniculus, Aqueous humor of eyeball; details: topical or ocular, read-out: Drug uptake
Cavia porcellus [10] = organism: Cavia porcellus; assay: Antiglaucoma activity in guinea pig assessed as hyperemia at 30 ug after 2 hrs relative to control; type: functional
Cavia porcellus [11] = organism: Cavia porcellus; assay: Antiglaucoma activity in guinea pig assessed as lowest dose required for producing 100% hyperemia after 2 hrs; type: functional
Homo sapiens [12] = assay: Antiglaucoma activity in human assessed as reduction in intraocular pressure at 0.25% solution administered as topical ocular dose after 21 days relative to control; type: functional, Eye; set-up: scale not given: the % may be the effect or the level left
[13] = Drug level in Dutch-Belted rabbit aqueous humor at 300 ug administered as topical ocular instillation after 30 mins by RP-HPLC analysis; type: ADME, Oryctolagus cuniculus, Aqueous humor of eyeball; details: topical or ocular, read-out: Drug uptake
Homo sapiens [14] = assay: Antiglaucoma activity in human assessed as reduction in intraocular pressure at 0.1% solution administered as topical ocular instillation relative to control; type: functional, Eye; set-up: scale not given: the % may be the effect or the level left

Sequence of Rho-associated protein kinase 1 (Q13464 whole entry, the tested form may be a part): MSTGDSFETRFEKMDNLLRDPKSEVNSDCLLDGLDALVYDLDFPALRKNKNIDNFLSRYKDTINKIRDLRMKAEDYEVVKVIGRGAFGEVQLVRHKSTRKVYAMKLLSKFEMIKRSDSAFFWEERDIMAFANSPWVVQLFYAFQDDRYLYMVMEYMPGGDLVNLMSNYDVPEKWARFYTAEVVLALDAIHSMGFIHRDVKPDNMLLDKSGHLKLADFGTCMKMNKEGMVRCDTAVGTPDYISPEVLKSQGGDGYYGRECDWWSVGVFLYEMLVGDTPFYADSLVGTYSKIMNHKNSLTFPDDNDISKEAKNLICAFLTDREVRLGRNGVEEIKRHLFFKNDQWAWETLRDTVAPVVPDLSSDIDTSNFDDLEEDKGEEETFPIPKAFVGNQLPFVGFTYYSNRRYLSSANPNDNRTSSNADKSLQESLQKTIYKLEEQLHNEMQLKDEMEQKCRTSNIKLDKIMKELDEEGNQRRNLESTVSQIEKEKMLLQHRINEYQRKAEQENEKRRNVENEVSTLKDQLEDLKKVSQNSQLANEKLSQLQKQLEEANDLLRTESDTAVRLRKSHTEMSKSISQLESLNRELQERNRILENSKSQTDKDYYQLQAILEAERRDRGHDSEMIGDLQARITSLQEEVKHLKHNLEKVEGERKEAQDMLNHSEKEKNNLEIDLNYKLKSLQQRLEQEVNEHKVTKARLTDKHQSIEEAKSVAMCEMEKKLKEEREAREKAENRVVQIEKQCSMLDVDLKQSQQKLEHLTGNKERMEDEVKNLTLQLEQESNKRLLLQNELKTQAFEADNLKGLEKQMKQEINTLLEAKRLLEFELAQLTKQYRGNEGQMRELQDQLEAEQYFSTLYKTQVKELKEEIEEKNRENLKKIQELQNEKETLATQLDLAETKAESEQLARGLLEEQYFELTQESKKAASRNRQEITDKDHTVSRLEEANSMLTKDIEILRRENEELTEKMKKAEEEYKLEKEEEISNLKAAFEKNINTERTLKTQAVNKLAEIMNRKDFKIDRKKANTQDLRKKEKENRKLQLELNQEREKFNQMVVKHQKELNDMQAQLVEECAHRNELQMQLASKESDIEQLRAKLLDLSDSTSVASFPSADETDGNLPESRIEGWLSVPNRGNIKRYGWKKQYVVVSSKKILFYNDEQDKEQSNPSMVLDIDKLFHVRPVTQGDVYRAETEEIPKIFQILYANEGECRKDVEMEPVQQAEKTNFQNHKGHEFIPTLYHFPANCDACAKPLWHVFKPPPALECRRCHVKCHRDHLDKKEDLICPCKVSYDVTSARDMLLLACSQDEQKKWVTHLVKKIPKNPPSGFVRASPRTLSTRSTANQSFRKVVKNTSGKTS
Sequence of Rho-associated protein kinase 2 (O75116 whole entry, the tested form may be a part): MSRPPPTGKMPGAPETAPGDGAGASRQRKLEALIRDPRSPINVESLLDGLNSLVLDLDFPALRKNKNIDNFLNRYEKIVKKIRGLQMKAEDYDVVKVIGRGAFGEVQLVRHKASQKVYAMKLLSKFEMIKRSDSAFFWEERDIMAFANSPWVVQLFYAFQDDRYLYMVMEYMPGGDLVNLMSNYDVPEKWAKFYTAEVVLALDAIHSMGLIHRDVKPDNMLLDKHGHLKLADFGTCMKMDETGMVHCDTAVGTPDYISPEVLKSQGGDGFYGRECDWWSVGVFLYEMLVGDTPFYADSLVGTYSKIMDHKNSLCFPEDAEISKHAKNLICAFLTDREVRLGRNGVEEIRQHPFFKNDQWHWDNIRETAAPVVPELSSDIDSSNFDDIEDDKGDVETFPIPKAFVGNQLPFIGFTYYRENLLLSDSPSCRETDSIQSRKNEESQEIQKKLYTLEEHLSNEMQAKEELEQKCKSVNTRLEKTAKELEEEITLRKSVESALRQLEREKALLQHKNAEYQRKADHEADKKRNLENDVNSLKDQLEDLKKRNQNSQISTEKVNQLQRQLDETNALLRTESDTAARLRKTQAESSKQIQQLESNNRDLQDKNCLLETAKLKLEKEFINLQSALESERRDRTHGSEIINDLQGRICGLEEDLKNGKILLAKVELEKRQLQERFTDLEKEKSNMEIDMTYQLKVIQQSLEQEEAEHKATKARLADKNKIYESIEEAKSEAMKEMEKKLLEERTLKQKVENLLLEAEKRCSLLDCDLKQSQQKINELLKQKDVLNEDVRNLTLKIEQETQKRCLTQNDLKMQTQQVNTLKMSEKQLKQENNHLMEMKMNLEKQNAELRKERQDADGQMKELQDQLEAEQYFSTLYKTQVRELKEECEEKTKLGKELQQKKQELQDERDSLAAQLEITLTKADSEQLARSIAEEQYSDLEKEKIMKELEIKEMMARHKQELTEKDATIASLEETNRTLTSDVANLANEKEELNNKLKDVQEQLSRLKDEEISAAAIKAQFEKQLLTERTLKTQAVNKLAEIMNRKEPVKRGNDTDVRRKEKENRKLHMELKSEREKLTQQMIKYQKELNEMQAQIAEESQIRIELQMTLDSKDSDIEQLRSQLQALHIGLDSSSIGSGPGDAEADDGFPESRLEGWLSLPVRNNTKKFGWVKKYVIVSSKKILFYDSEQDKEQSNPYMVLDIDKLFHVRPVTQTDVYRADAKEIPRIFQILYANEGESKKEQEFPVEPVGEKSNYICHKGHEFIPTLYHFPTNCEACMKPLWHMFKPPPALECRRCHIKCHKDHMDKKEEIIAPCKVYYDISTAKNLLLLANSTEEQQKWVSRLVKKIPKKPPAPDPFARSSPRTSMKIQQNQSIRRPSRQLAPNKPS

| SMILES | concentration at 0.5 h [1] [nM] | IC50 [2] [nM] | MTD (Cynomolgus monkey [3]) [%] | solubility [4] | Activity (Cavia porcellus [5]) [%] | Activity (Cynomolgus monkey [6]) [%] | IC50 [7] [nM] | Activity (Cavia porcellus [8]) [%] | concentration at 0.5 h [9] [nM] | Activity (Cavia porcellus [10]) [%] | Activity (Cavia porcellus [11]) [µg] | Activity (Homo sapiens [12]) [%] | concentration at 0.5 h [13] [nM] | Activity (Homo sapiens [14]) [%] |
| --- | --- | --- | --- | --- | --- | --- | --- | --- | --- | --- | --- | --- | --- | --- |
| CN(C)CC(O)CN1CCN(c2nc(-c3ccncc3)cnc2N2CCCC2)CC1 (configuration not stated) | 950 | 288 | 1 | soluble | 58 | 14 | 76 | – | – | – | – | – | – | – |
| CC(=O)NCC(O)CN1CCN(c2nc(-c3ccncc3)cnc2N2CCCC2)CC1 (configuration not stated) | – | 350 | 0.33 | soluble | – | 9 | 68 | 42 | 4800 | – | – | – | – | – |
| CC(=O)NCCCN1CCN(c2nc(-c3ccncc3)cnc2N2CCCC2)CC1 | 8300 | 346 | 0.5 | soluble | – | 24 | 75 | – | – | 66 | – | – | – | – |
| c1nc(N2CCCC2)c(N2CCCNCC2)nc1-c1cc2cn[nH]c2cn1 | 680 | 203 | 0.33 | – | – | 26 | 65 | – | – | – | 30 | – | – | – |
| c1cc2[nH]ncc2cc1-c1cncc(N2CCCNCC2)n1 | – | 105 | 0.33 | – | – | 30 | 24 | – | 1000 | – | 30 | – | – | – |
| Cc1n[nH]c2ccc(-c3cncc(N4CCCNCC4)n3)cc12 | – | 140 | 0.33 | – | – | 31 | 36 | – | 200 | – | – | – | – | – |
| CNC(CC1CCCCC1)C(=O)Nc1ccc2cnccc2c1 (configuration not stated) | – | – | – | – | – | – | – | – | – | – | – | 20 | – | – |
| OCCN1CCN(c2nc(-c3ccncc3)cnc2N2CCCC2)CC1 | – | 570 | 1 | soluble | – | 26 | 39 | 33 | – | – | – | – | 3800 | – |
| C[C@@H](N)c1ccc(C(=O)Nc2ccnc3[nH]ccc23)cc1 [Y-39983] | – | – | 0.1 | soluble | – | <15 | – | – | – | – | 3 | – | 4400 | 22 |
